Measured values published in ChEMBL document CHEMBL1149750, “Drimane Sesquiterpene Lactones from Peniophora polygonia” (J Nat Prod, 1992).
Active and inactive are the calls of the source. No cut-off for these calls is given here.

Tested on: Phellinus tremulae
Experiment: Antifungal activity against Phellinus tremulae
Type: functional, organism-based

`CC1(C)CCC[C@]2(C)[C@H]3COC(=O)[C@@]3(O)CC[C@@H]12` was tested, and the Activity was “Active”.
